According to patent publication US10669290B2, “Beta-lactamase inhibitors” (priority 2012, dated 2020):

Columns and labels:
Format in all cases: cell-based
[1] = system: K.P. A-1797 KPC-2 VIM-4; assay: Broth microdilution MIC, K. pneumoniae A-1797; conditions: Klebsiella pneumoniae; fixed meropenem 4 μg/mL, CAMHB, 16-20 hours 37° C.; read-out: MIC of exemplary compounds in presence of fixed β-lactams, Fixed Mero, K.P. A-1797 KPC-2 VIM-4
Source text: (§1) To determine the ability of test compounds to potentiate the inhibition of the growth of bacterial strains that produce beta-lactamase enzymes, classic cell based broth microdilution MIC assays were employed. Six bacteria strains producing beta-lactamase enzymes were used: E. coli expressing the Class A Extended Spectrum Beta-Lactamase (ESBL) CTX-M-15, E. cloacae expressing the Class C P99, K. pneumoniae expressing the Class A carbapenemase KPC-2, P. aeruginosa expressing the Class B carbapenemase VIM-2, K. pneumoniae expressing the class A carbapenemase KPC-2 and the class B carbapenemase VIM-4, and S. aureus producing the Class A penicillinase PC-1. The assay was conducted in Cation Adjusted Mueller Hinton Broth (CAMHB, BD #212322, BD Diagnostic Systems, Sparks, Md.). Bacteria strains were grown for 3-5 hours in CAMBH broth. Test compounds were added to a microtiter plate in 2-fold serial dilutions in CAMHB in a final concentration range of 32 μg/mL to 0.25 μg/ml. An overlay of CAMHB containing a Beta-lactam was added to the compounds at a final static concentration of 4 μg/ml. […] In addition to the titration of test compounds the MICs of a panel of control beta-lactams is also tested to ensure the strains are behaving consistently from test to test. Once the test compound and antibiotics are added the plates can be inoculated according to CLSI broth microdilution method. After inoculation the plates are incubated for 16-20 hours at 37° C. then the Minimal Inhibitory Concentration (MIC) of the test compound is determined visually.
(§2) Using the methodology described above in EXAMPLE III, exemplary compounds for Formula I or Formula Ia were evaluated for their ability to inhibit the growth of β-lactamase producing bacteria in the presence of a β-lactam antibiotic.

[2] = system: E. coli ESBL4 CTX-M-15; assay: Broth microdilution MIC, E. coli ESBL4; conditions: Escherichia coli, ESBL4CTXM15; fixed ceftazidime 4 μg/mL, CAMHB, 16-20 hours 37° C.; read-out: MIC of exemplary compounds in presence of fixed β-lactams, Fixed CAZ, E. coli ESBL4 CTX-M-15
Source text: as §1, §2

[3] = system: S. aureus MSSA-7 PC-1; assay: Broth microdilution MIC, S. aureus MSSA-7; conditions: Staphylococcus aureus, fixed piperacillin 4 μg/mL, CAMHB, 16-20 hours 37° C., read-out: MIC of exemplary compounds in presence of fixed β-lactams, Fixed Pip, S. aureus MSSA-7 PC-1
Source text: as §1, §2

[4] = system: E. cl 144200 p99 AmpC; assay: Broth microdilution MIC, E. cloacae 144200; conditions: Enterobacter cloacae; fixed ceftazidime 4 μg/mL, CAMHB, 16-20 hours 37° C.; read-out: MIC of exemplary compounds in presence of fixed β-lactams, Fixed CAZ, E. cl 144200 p99 AmpC
Source text: as §1, §2

[5] = system: K.P. 156319 KPC-3; assay: Broth microdilution MIC, K. pneumoniae 156319; conditions: Klebsiella pneumoniae; fixed meropenem 4 μg/mL, CAMHB, 16-20 hours 37° C.; read-out: MIC of exemplary compounds in presence of fixed β-lactams, Fixed Mero, K.P. 156319 KPC-3
[6] = system: P. aerug. Ps296 VIM-2; assay: Broth microdilution MIC, P. aeruginosa Ps296; conditions: Pseudomonas aeruginosa; fixed meropenem 4 μg/mL, CAMHB, 16-20 hours 37° C.; read-out: MIC of exemplary compounds in presence of fixed β-lactams, Fixed Mero, P. aerug. Ps296 VIM-2
Source text: as §1, §2

MIC [1] | MIC [2] | MIC [3] | MIC [4] | MIC [5] | MIC [6] | SMILES
< 4 µg/mL | < 4 µg/mL | < 4 µg/mL | < 4 µg/mL | < 4 µg/mL | < 4 µg/mL | CNCCN[C@H]1CC[C@H](C(CO)C(=O)N[C@H]2Cc3cccc(C(=O)O)c3OB2O)CC1 (stereo partly drawn) [Example 64, (R)-2-hydroxy-3-(3-hydroxy-2-(trans-4-(2-(methylamino)ethylamino)cyclohexyl)propanamido)-3,4-dihydro-2H-benzo[e][1,2]oxaborinine-8-carboxylic acid]
8 to 32 µg/mL | < 4 µg/mL | < 4 µg/mL | < 4 µg/mL | < 4 µg/mL | < 4 µg/mL | O=C(C[C@H]1CC[C@H](NCCNc2ncccn2)CC1)N[C@H]1Cc2cccc(C(=O)O)c2OB1O [Example 72]
8 to 32 µg/mL | < 4 µg/mL | < 4 µg/mL | < 4 µg/mL | < 4 µg/mL | < 4 µg/mL | NCC(N)[C@H]1CC[C@H](CC(=O)N[C@H]2Cc3cccc(C(=O)O)c3OB2O)CC1 (stereo partly drawn) [Example 77, (R)-3-(2-(trans-4-(1,2-diaminoethyl)cyclohexyl)acetamido)-2-hydroxy-3,4-dihydro-2H-benzo[e][1,2]oxaborinine-8-carboxylic acid]
< 4 µg/mL | < 4 µg/mL | < 4 µg/mL | < 4 µg/mL | < 4 µg/mL | < 4 µg/mL | CC(C)NCCN[C@H]1CC[C@H](CC(=O)N[C@H]2Cc3cccc(C(=O)O)c3OB2O)CC1 [Example 71, (R)-2-hydroxy-3-(2-(trans-4-(2-(isopropylamino)ethylamino)cyclohexyl)acetamido)-3,4-dihydro-2H-benzo[e][1,2]oxaborinine-8-carboxylic acid]
8 to 32 µg/mL | < 4 µg/mL | < 4 µg/mL | < 4 µg/mL | < 4 µg/mL | < 4 µg/mL | N[C@H]1CC(CC(=O)N[C@H]2Cc3cccc(C(=O)O)c3OB2O)C[C@@H]1N [Example 37]
> 32 µg/mL | < 4 µg/mL | < 4 µg/mL | < 4 µg/mL | < 4 µg/mL | 8 to 32 µg/mL | O=C(C[C@H]1CC[C@H](NCc2ccccn2)CC1)N[C@H]1Cc2cccc(C(=O)O)c2OB1O [Example 32, (R)-2-hydroxy-3-(2-(trans-4-(pyridin-2-ylmethylamino)cyclohexyl)acetamido)-3,4-dihydro-2H-benzo[e][1,2]oxaborinine-8-carboxylic acid]
< 4 µg/mL | < 4 µg/mL | < 4 µg/mL | < 4 µg/mL | < 4 µg/mL | < 4 µg/mL | CN(CCN)[C@H]1CC[C@H](CC(=O)N[C@H]2Cc3cccc(C(=O)O)c3OB2O)CC1 [Example 63, (R)-3-(2-(trans-4-((2-aminoethyl)(methyl)amino)cyclohexyl)acetamido)-2-hydroxy-3,4-dihydro-2H-benzo[e][1,2]oxaborinine-8-carboxylic acid]
8 to 32 µg/mL | < 4 µg/mL | < 4 µg/mL | < 4 µg/mL | < 4 µg/mL | < 4 µg/mL | NC[C@H]1CC[C@H](CC(=O)N[C@H]2Cc3cccc(C(=O)O)c3OB2O)CC1 [Example 3]
> 32 µg/mL | < 4 µg/mL | < 4 µg/mL | < 4 µg/mL | < 4 µg/mL | 8 to 32 µg/mL | O=C(C[C@H]1CC[C@H](N2C=NCC2)CC1)N[C@H]1Cc2cccc(C(=O)O)c2OB1O [Example 29, (R)-3-(2-(trans-4-(4,5-dihydro-1H-imidazol-1-yl)cyclohexyl)acetamido)-2-hydroxy-3,4-dihydro-2H-benzo[e][1,2]oxaborinine-8-carboxylic acid]
> 32 µg/mL | < 4 µg/mL | < 4 µg/mL | < 4 µg/mL | 8 to 32 µg/mL | > 32 µg/mL | CN1CCN([C@H]2CC[C@H](CC(=O)N[C@H]3Cc4cccc(C(=O)O)c4OB3O)CC2)C1=N [Example 52, (R)-2-hydroxy-3-(2-(trans-4-(2-imino-3-methylimidazolidin-1-yl)cyclohexyl)acetamido)-3,4-dihydro-2H-benzo[e][1,2]oxaborinine-8-carboxylic acid]
> 32 µg/mL | < 4 µg/mL | < 4 µg/mL | < 4 µg/mL | < 4 µg/mL | < 4 µg/mL | NCCNC1CCC(O)(CC(=O)N[C@H]2Cc3cccc(C(=O)O)c3OB2O)CC1 (stereo partly drawn) [Example 43, 3-{2-[4-(2-Amino-ethylamino)-1-hydroxy-cyclohexyl]-acetylamino}-2-hydroxy-3,4-dihydro-2H-benzo[e][1,2]oxaborinine-8-carboxylic acid]
< 4 µg/mL | < 4 µg/mL | < 4 µg/mL | < 4 µg/mL | < 4 µg/mL | < 4 µg/mL | NCCN[C@H]1CC[C@H](CC(=O)N[C@H]2Cc3cccc(C(=O)O)c3OB2O)CC1 [Example 15, (R)-3-(2-(trans-4-(2-aminoethylamino)cyclohexyl)acetamido)-2-hydroxy-3,4-dihydro-2H-benzo[e][1,2]oxaborinine-8-carboxylic acid]
> 32 µg/mL | < 4 µg/mL | < 4 µg/mL | < 4 µg/mL | < 4 µg/mL | > 32 µg/mL | O=C(C[C@H]1CC[C@@H](N2CCNCC2)CC1)N[C@H]1Cc2cccc(C(=O)O)c2OB1O [Example 17, (R)-2-hydroxy-3-(2-(cis-4-(piperazin-1-yl)cyclohexyl)acetamido)-3,4-dihydro-2H-benzo[e][1,2]oxaborinine-8-carboxylic acid]
8 to 32 µg/mL | < 4 µg/mL | < 4 µg/mL | < 4 µg/mL | < 4 µg/mL | < 4 µg/mL | N=C(N)NC[C@H]1CC[C@H](CC(=O)N[C@H]2Cc3cccc(C(=O)O)c3OB2O)CC1 [Example 4, (R)-3-(2-(trans-4-(guanidinomethyl)cyclohexyl)acetamido)-2-hydroxy-3,4-dihydro-2H-benzo[e][1,2]oxaborinine-8-carboxylic acid]
> 32 µg/mL | < 4 µg/mL | < 4 µg/mL | < 4 µg/mL | < 4 µg/mL | < 4 µg/mL | O=C(C[C@H]1CC[C@H](N(Cc2ncc[nH]2)Cc2ncc[nH]2)CC1)N[C@H]1Cc2cccc(C(=O)O)c2OB1O [Example 69, (R)-3-(2-(trans-4-(bis((1H-imidazol-2-yl)methyl)amino)cyclohexyl)acetamido)-2-hydroxy-3,4-dihydro-2H-benzo[e][1,2]oxaborinine-8-carboxylic acid]
< 4 µg/mL | < 4 µg/mL | < 4 µg/mL | < 4 µg/mL | < 4 µg/mL | < 4 µg/mL | NCCNC1CC(CC(=O)N[C@H]2Cc3cccc(C(=O)O)c3OB2O)C1 (stereo partly drawn) [Example 55, (R)-3-(2-(3-(2-aminoethylamino)cyclobutyl)acetamido)-2-hydroxy-3,4-dihydro-2H-benzo[e][1,2]oxaborinine-8-carboxylic acid]
> 32 µg/mL | < 4 µg/mL | < 4 µg/mL | < 4 µg/mL | 8 to 32 µg/mL | < 4 µg/mL | CN(C)CC(=O)NC[C@H]1CC[C@H](CC(=O)N[C@H]2Cc3cccc(C(=O)O)c3OB2O)CC1 [Example 5, (R)-3-(2-(trans-4-((2-(dimethylamino)acetamido)methyl)cyclohexyl)acetamido)-2-hydroxy-3,4-dihydro-2H-benzo[e][1,2]oxaborinine-8-carboxylic acid]
